# Reference: patent US11970498B2, “CDK2 inhibitors” (BLUEPRINT MEDICINES CORPORATION, priority 2021, dated 2024)
# What was measured:
# CDK2/Cyclin E = CDK2/Cyclin E (Homo sapiens, UniProt P24941); assay: CDK2/Cyclin E biochemical phosphorylation assay (Caliper mobility shift); settings: apparent IC50; 1.0 mM ATP or ATP Km; 1.25 nM enzyme; 25° C.; read-out: CDK2/cyclin E1 IC50
# Method: (§1) Inhibitory effects of the compounds of the disclosure were measured in biochemical assays that measure the enzymatic phosphorylation activity of CDK enzyme in complex of Cyclin proteins phosphorylates 7.5 micromolar fluorescently labelled peptide substrate, 5-FAM-QSPKKG-CONH2, (FL-Peptide 18, Perkin Elmer, 760362) in the presence of adenosine-5′-triphosphate (ATP) and varying concentrations of the test compound in 100 mM 2-[4-(2-hydroxyethyl)piperazin-1-yl] ethanesulfonic acid (HEPES), pH 7.5, 10 mM MgCl2, 0.015% Brij-35, 1 mM dithiothreitol (DTT), 1.0% dimethylsulfoxide (DMSO). Assays were performed at 1.0 mM ATP or at ATP Km of the CDK enzymes in complex with Cyclin proteins. Reactions proceeded until between 10% to 20% total peptides were phosphorylated at room temperature (25° C.) and were terminated with 35 mM 2,2′,2″,2′″-(ethane-1,2-diyldinitrilo)tetraacetic acid (EDTA). Product was detected using the Caliper mobility shift detection method where the phosphorylated peptide (product) and substrate were electrophoretically separated and measured. Percent activity was plotted against log concentration of compound and points to generate an apparent IC50. The following CDK enzymes in complex with different cyclin proteins were used in these assays: • CDK1/Cyclin B1, GST-tag (BPS, 40454), 1.5 nM used in the assay • CDK2/Cyclin E (Eurofins, 14-475), 1.25 nM used in the assays
# (§2) For inhibitory activity against CDK2/Cyclin E mutant, the following designations are used: ≤10 nM=A; >10-20 nM=B; >20-30 nM=C; >30-100 nM=D and >100=E. For inhibition CDK1/Cyclin B1, GST-tag: ≥500 nM=A; <100-500 nM=B; <100 nM=C.
# CDK1/Cyclin B1, GST-tag = target: T1, CDK1/Cyclin B1, GST-tag (Homo sapiens, UniProt P06493); assay: CDK1/Cyclin B1 biochemical phosphorylation assay (Caliper mobility shift); settings: apparent IC50; 1.0 mM ATP or ATP Km; 1.5 nM enzyme; 25° C.
# T1 construct: GST
# T1 sequence (P06493 whole entry): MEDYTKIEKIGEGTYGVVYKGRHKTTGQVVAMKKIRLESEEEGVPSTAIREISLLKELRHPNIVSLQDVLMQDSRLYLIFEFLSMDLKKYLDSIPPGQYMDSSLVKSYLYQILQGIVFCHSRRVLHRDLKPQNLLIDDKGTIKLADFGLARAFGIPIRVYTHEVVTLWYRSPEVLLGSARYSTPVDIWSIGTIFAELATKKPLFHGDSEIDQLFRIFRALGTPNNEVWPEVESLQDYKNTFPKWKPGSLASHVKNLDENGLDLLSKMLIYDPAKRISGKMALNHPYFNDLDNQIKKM
# T1 sequence (P14635 whole entry partner): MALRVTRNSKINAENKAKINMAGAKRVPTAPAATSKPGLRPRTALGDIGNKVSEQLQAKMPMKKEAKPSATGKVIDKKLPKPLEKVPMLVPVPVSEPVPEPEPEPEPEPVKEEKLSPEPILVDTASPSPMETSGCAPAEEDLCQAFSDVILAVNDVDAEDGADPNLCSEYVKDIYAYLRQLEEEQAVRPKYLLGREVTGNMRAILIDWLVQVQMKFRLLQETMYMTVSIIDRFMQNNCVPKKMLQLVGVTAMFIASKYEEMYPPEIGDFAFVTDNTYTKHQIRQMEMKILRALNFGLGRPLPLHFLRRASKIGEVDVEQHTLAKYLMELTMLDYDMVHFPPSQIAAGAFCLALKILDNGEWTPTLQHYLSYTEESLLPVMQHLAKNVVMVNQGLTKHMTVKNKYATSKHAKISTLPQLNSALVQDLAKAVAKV
# Method: as §1, §2
Compound,IC50 (CDK2/Cyclin E),"IC50 (CDK1/Cyclin B1, GST-tag)"
"FC(F)Oc1cc(Nc2cnc3cnn(C[C@H]4CCCOC4)c3n2)n[nH]1 (single isomer, unassigned) [Example 142, (S)-N-(5-(difluoromethoxy)-1H-pyrazol-3-yl)-1-((tetrahydro-2H-pyran-3-yl)methyl)-1H-pyrazolo[3,4-b]pyrazin-6-amine or (R)-N-(5-(difluoromethoxy)-1H-pyrazol-3-yl)-1-((tetrahydro-2H-pyran-3-yl)methyl)-1H-pyrazolo[3,4-b]pyrazin-6-amine]",≤ 10 nM,100 to 500 nM
"FC(F)Oc1cc(Nc2cnc3cnn(C[C@H]4CCOC4)c3n2)n[nH]1 (single isomer, unassigned) [Example 143, (R)-N-(5-(difluoromethoxy)-1H-pyrazol-3-yl)-1-((tetrahydrofuran-3-yl)methyl)-1H-pyrazolo[3,4-b]pyrazin-6-amine or (S)-N-(5-(difluoromethoxy)-1H-pyrazol-3-yl)-1-((tetrahydrofuran-3-yl)methyl)-1H-pyrazolo[3,4-b]pyrazin-6-amine]",10 to 20 nM,≥ 500 nM
"FC(F)Oc1cc(Nc2cnc3cnn(C[C@H]4CCOC4)c3n2)n[nH]1 (single isomer, unassigned) [Example 144, (S)-N-(5-(difluoromethoxy)-1H-pyrazol-3-yl)-1-((tetrahydrofuran-3-yl)methyl)-1H-pyrazolo[3,4-b]pyrazin-6-amine or (R)-N-(5-(difluoromethoxy)-1H-pyrazol-3-yl)-1-((tetrahydrofuran-3-yl)methyl)-1H-pyrazolo[3,4-b]pyrazin-6-amine]",≤ 10 nM,< 100 nM
"O[C@H]1C[C@H](n2ncc3ncc(Nc4cc(OC(F)F)[nH]n4)nc32)C1 (single isomer, unassigned) [Example 145, (1r,3r)-3-(6-((5-(difluoromethoxy)-1H-pyrazol-3-yl)amino)-1H-pyrazolo[3,4-b]pyrazin-1-yl)cyclobutan-1-ol or (1s,3s)-3-(6-((5-(difluoromethoxy)-1H-pyrazol-3-yl)amino)-1H-pyrazolo[3,4-b]pyrazin-1-yl)cyclobutan-1-ol]",> 100 nM,≥ 500 nM
"O[C@H]1C[C@H](n2ncc3ncc(Nc4cc(OC(F)F)[nH]n4)nc32)C1 (single isomer, unassigned) [Example 146, (1s,3s)-3-(6-((5-(difluoromethoxy)-1H-pyrazol-3-yl)amino)-1H-pyrazolo[3,4-b]pyrazin-1-yl)cyclobutan-1-ol or (1r,3r)-3-(6-((5-(difluoromethoxy)-1H-pyrazol-3-yl)amino)-1H-pyrazolo[3,4-b]pyrazin-1-yl)cyclobutan-1-ol]",20 to 30 nM,≥ 500 nM
"FC(F)Oc1cc(Nc2cnc3cnn([C@@H](c4cccnc4)C4CC4)c3n2)n[nH]1 (single isomer, unassigned) [Example 147, (R)-1-(cyclopropyl(pyridin-3-yl)methyl)-N-(5-(difluoromethoxy)-1H-pyrazol-3-yl)-1H-pyrazolo[3,4-b]pyrazin-6-amine or (S)-1-(cyclopropyl(pyridin-3-yl)methyl)-N-(5-(difluoromethoxy)-1H-pyrazol-3-yl)-1H-pyrazolo[3,4-b]pyrazin-6-amine]",≤ 10 nM,≥ 500 nM
"FC(F)Oc1cc(Nc2cnc3cnn([C@@H](c4cccnc4)C4CC4)c3n2)n[nH]1 (single isomer, unassigned) [Example 148, (S)-1-(cyclopropyl(pyridin-3-yl)methyl)-N-(5-(difluoromethoxy)-1H-pyrazol-3-yl)-1H-pyrazolo[3,4-b]pyrazin-6-amine or (R)-1-(cyclopropyl(pyridin-3-yl)methyl)-N-(5-(difluoromethoxy)-1H-pyrazol-3-yl)-1H-pyrazolo[3,4-b]pyrazin-6-amine]",≤ 10 nM,≥ 500 nM
"FC(F)Oc1cc(Nc2cnc3cnn([C@H](c4ccccn4)C(F)F)c3n2)n[nH]1 (single isomer, unassigned) [Example 149, (R)-1-(2,2-difluoro-1-(pyridin-2-yl)ethyl)-N-(5-(difluoromethoxy)-1H-pyrazol-3-yl)-1H-pyrazolo[3,4-b]pyrazin-6-amine or (S)-1-(2,2-difluoro-1-(pyridin-2-yl)ethyl)-N-(5-(difluoromethoxy)-1H-pyrazol-3-yl)-1H-pyrazolo[3,4-b]pyrazin-6-amine]",30 to 100 nM,≥ 500 nM
"FC(F)Oc1cc(Nc2cnc3cnn([C@H](c4ccccn4)C(F)F)c3n2)n[nH]1 (single isomer, unassigned) [Example 150, (S)-1-(2,2-difluoro-1-(pyridin-2-yl)ethyl)-N-(5-(difluoromethoxy)-1H-pyrazol-3-yl)-1H-pyrazolo[3,4-b]pyrazin-6-amine or (R)-1-(2,2-difluoro-1-(pyridin-2-yl)ethyl)-N-(5-(difluoromethoxy)-1H-pyrazol-3-yl)-1H-pyrazolo[3,4-b]pyrazin-6-amine]",10 to 20 nM,≥ 500 nM
"C[C@@H](c1ccc(F)nc1)n1ncc2ncc(Nc3cc(OC(F)F)[nH]n3)nc21 (single isomer, unassigned) [Example 151, (S)-N-(5-(difluoromethoxy)-1H-pyrazol-3-yl)-1-(1-(6-fluoropyridin-3-yl)ethyl)-1H-pyrazolo[3,4-b]pyrazin-6-amine or (R)-N-(5-(difluoromethoxy)-1H-pyrazol-3-yl)-1-(1-(6-fluoropyridin-3-yl)ethyl)-1H-pyrazolo[3,4-b]pyrazin-6-amine]",≤ 10 nM,≥ 500 nM
"C[C@@H](c1ccc(F)nc1)n1ncc2ncc(Nc3cc(OC(F)F)[nH]n3)nc21 (single isomer, unassigned) [Example 152, (R)-N-(5-(difluoromethoxy)-1H-pyrazol-3-yl)-1-(1-(6-fluoropyridin-3-yl)ethyl)-1H-pyrazolo[3,4-b]pyrazin-6-amine or (S)-N-(5-(difluoromethoxy)-1H-pyrazol-3-yl)-1-(1-(6-fluoropyridin-3-yl)ethyl)-1H-pyrazolo[3,4-b]pyrazin-6-amine]",20 to 30 nM,≥ 500 nM
"C[C@@H](c1cncc(F)c1)n1ncc2ncc(Nc3cc(OC(F)F)[nH]n3)nc21 (single isomer, unassigned) [Example 153, (S)-N-(5-(difluoromethoxy)-1H-pyrazol-3-yl)-1-(1-(5-fluoropyridin-3-yl)ethyl)-1H-pyrazolo[3,4-b]pyrazin-6-amine or (R)-N-(5-(difluoromethoxy)-1H-pyrazol-3-yl)-1-(1-(5-fluoropyridin-3-yl)ethyl)-1H-pyrazolo[3,4-b]pyrazin-6-amine]",10 to 20 nM,≥ 500 nM
"C[C@@H](c1cncc(F)c1)n1ncc2ncc(Nc3cc(OC(F)F)[nH]n3)nc21 (single isomer, unassigned) [Example 154, (R)-N-(5-(difluoromethoxy)-1H-pyrazol-3-yl)-1-(1-(5-fluoropyridin-3-yl)ethyl)-1H-pyrazolo[3,4-b]pyrazin-6-amine or (S)-N-(5-(difluoromethoxy)-1H-pyrazol-3-yl)-1-(1-(5-fluoropyridin-3-yl)ethyl)-1H-pyrazolo[3,4-b]pyrazin-6-amine]",20 to 30 nM,≥ 500 nM
"C[C@H](c1cccc(F)n1)n1ncc2ncc(Nc3cc(OC(F)F)[nH]n3)nc21 (single isomer, unassigned) [Example 155, (R)-N-(5-(difluoromethoxy)-1H-pyrazol-3-yl)-1-(1-(6-fluoropyridin-2-yl)ethyl)-1H-pyrazolo[3,4-b]pyrazin-6-amine or (S)-N-(5-(difluoromethoxy)-1H-pyrazol-3-yl)-1-(1-(6-fluoropyridin-2-yl)ethyl)-1H-pyrazolo[3,4-b]pyrazin-6-amine]",30 to 100 nM,≥ 500 nM
"C[C@H](c1cccc(F)n1)n1ncc2ncc(Nc3cc(OC(F)F)[nH]n3)nc21 (single isomer, unassigned) [Example 156, (S)-N-(5-(difluoromethoxy)-1H-pyrazol-3-yl)-1-(1-(6-fluoropyridin-2-yl)ethyl)-1H-pyrazolo[3,4-b]pyrazin-6-amine or (R)-N-(5-(difluoromethoxy)-1H-pyrazol-3-yl)-1-(1-(6-fluoropyridin-2-yl)ethyl)-1H-pyrazolo[3,4-b]pyrazin-6-amine]",≤ 10 nM,≥ 500 nM
"FC(F)Oc1cc(Nc2cnc3cnn([C@H](C4CCOCC4)C4CC4)c3n2)n[nH]1 (single isomer, unassigned) [Example 157, (S)-1-(cyclopropyl(tetrahydro-2H-pyran-4-yl)methyl)-N-(5-(difluoromethoxy)-1H-pyrazol-3-yl)-1H-pyrazolo[3,4-b]pyrazin-6-amine or (R)-1-(cyclopropyl(tetrahydro-2H-pyran-4-yl)methyl)-N-(5-(difluoromethoxy)-1H-pyrazol-3-yl)-1H-pyrazolo[3,4-b]pyrazin-6-amine]",30 to 100 nM,≥ 500 nM
